Source: patent US20060148876A1, “Nr3b1 nuclear receptor binding 3-substituted pyrazoles” (priority 2002, published 2006)
Entries after “also recorded” stand apart in the source; their conditions may differ.

How the values were obtained:
MDA-MB-231 cells = experiment: Cell proliferation assay (CellTiter 96) in ER negative breast cancer cells; type: cell-based; settings: 6 days treatment
Method: (§1) Cells were seeded in 96-well plates at a density of 15,000 (MDA-MB-231) or 10,000 (T47D) cells/100 μl/well in phenol red-free DMEM (Gibco-BRL) containing 10% (MDA-MB-231) or 2% (T47D) charcoal dextran treated FBS (Perbio Science GmbH). Treatment media containing either 0.1% DMSO (control) or 0.1% DMSO with increasing concentrations of compounds (as indicated) were added on the following day and replaced at 72 h intervals until the end of the experiment. At 6 days (MDA-MB-231) or 8 days (T47D) after initiation of the treatment a colorimetric proliferation assay was performed using CellTiter 96 Aqueous nonradioactive proliferation assay as directed by the manufacturer (Promega). Cell proliferation rates were measured as absorbance of the formazan product at 490 nm. Values are expressed as percentage of control (DMSO) and represent the means of three replicates.

T47D cells = experiment: Cell proliferation assay (CellTiter 96) in ER positive breast cancer cells; type: cell-based; settings: 8 days treatment, 1 nM to 100 nM
Method: as §1

human ERR alpha (NR3B1) = experiment: In vitro LANCE (TR-FRET) screening for compounds which influence ERRa binding to coactivator SRC1 peptide; type: biochemical; settings: see figures
Method: The present invention relates to a compound as described above wherein said compounds is capable of binding the NR3B1 receptor protein or a portion thereof according to SEQ ID NO. 1 (cf. FIG. 3 A to D) or a mammalian homologue thereof. The claimed compound can bind to the NR3B1 receptor protein or a portion thereof in a mixture comprising 10-200 ng of NR3B1 receptor protein or a portion thereof, preferably the ligand binding domain, 20 mM Tris/HCl at pH 7.9; 60 mM KCl; 5 mM MgCl2; 160 ng/μl BSA in a total volume of preferably about 25 μl.
For screening purposes a fragment of the open reading frame of human ERR alpha (NR3B1-(Acc. No: NM_004451)) encoding aminoacids […] was amplified by standard RT PCR procedures (see figures; SEQ ID NO. 1 and 2). […]
For screening of compound libraries as provided for by the methods shown below in the examples for substances which influence the ERRa/SRC1 interaction, the Perkin Elmer LANCE technology was applied. […] For ease of handling and reduction of background from compound fluorescence LANCE technology makes use of generic fluorophore labels and time resoved detection (for detailed description see Hemmilä I, Blomberg K and Hurskainen P, Time-resolved resonance energy transfer (TRFRET) principle in LANCE, Abstract of Papers Presented at the 3 rd Annual Conference of the Society for Biomolecular Screening, September, California (1997)). […]

Row | active as antagonist of the NR3B1 human nuclear receptor (human ERR alpha (NR3B1)) | SMILES | effect on proliferation of MDA-MB-231 cells (ER negative) (MDA-MB-231 cells) | effect on proliferation of T47D cells (ER positive) (T47D cells) | effect on proliferation of T47D cells (ER positive) (T47D cells; listed as E2)
1 |  | C[C@]12CC[C@@H]3c4ccc(O)cc4CC[C@H]3[C@@H]1CC[C@@H]2O [17β-estradiol] | did not | stimulated | stimulate the growth
2 |  | CC/C(=C(/CC)c1ccc(O)cc1)c1ccc(O)cc1 [DES, Diethylstilbestrol] | inhibited proliferation; also recorded: inhibit growth | stimulated; also recorded: stimulate the growth | 
3 | active as antagonist | Cc1ccc(C)c(-c2cc(-c3ccc(O)cc3)nn2C)c1 [formula 5] |  |  | 
4 | active as antagonist | Cc1cc(C)cc(-n2nc(-c3ccc(O)cc3)cc2-c2ccc(C)o2)c1 [formula 6] |  |  | 
